The record followed here is patent US10800791B2, “Triazole ACC inhibitors and uses thereof” (Gilead Apollo, LLC, priority 2015, dated 2020).

SMILES strings stand for the structures. Values after ≈ are worked out from the molar mass of the structure shown. Like-named read-outs stand apart in the source and are kept apart here. Bounds are passed on as bounds.

One assay deals with human (hACC2) (Homo sapiens, UniProt O00763). Put plainly: In vitro ACC inhibition assay (ADP-Glo), hACC2. Format: biochemical. The settings on record: 5 nM ACC2, 20 μM ATP, 20 μM acetyl-CoA. Here is the method:
The detailed procedure is as follows. […] 10 μL ADP glo reagent was added. […] 20 μL kinase detection reagent was added.
For orientation: ADP-Glo turns the ADP formed in a reaction into a luminescent signal.

In the next assay the test system is C. albicans. Put plainly: Antifungal Activity Assay (broth microtiter MIC), C. albicans. Format: cell-based, Candida albicans. The settings on record: Candida albicans, ATCC90028, 48 h. Put shortly: (§1)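 MICs were scored by eye at 48 h relative to the growth control. Plates followed CLSI M27-A3, with Candida suspensions in RPMI 1640+MOPS giving a final 2.5×10^3 CFU/mL; the colonies came from Sabouraud agar grown overnight at 35 °C.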

For a further assay, the system named is C. krusei. Nature of the assay: Antifungal Activity Assay (broth microtiter MIC), C. krusei. It counts as cell-based, Candida krusei. The following applies: Pichia kudriavzevii, ATCC6258, 48 h. Put shortly: as §1
The test system of a further assay is C. parapsilosis. Nature of the assay: Antifungal Activity Assay (broth microtiter MIC), C. parapsilosis. Format: cell-based, Candida parapsilosis. The following applies: Lodderomyces parapsilosis, ATCC22019, 48 h. An outline of the steps: as §1
The next assay has as its system Botrtyis cinerea (Bc). Nature of the assay: Growth inhibition assay of fungal pathogens, Bc. It counts as cell-based. The settings on record: 48 h, growth inhibition at 48 hours vs 2% DMSO control. Put shortly: (§2)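 Read-out: OD600 plus visual rating at 24 and 48 h, blank (media + 2% DMSO) subtracted. Percent inhibition was derived at 48 h versus the 2% DMSO control. Spores were grown in 17% V8 broth with compound at 50/10/2 or 2/0.4/0.08 ppm final.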

Assay [1] relates to Collectotrichum graminicola (Cg). Put plainly: Growth inhibition assay of fungal pathogens, Cg. The following applies: 48 h, growth inhibition at 48 hours vs 2% DMSO control. Format: cell-based. Put shortly: as §2
The subject of another assay is Diplodia maydis (Dm). Nature of the assay: Growth inhibition assay of fungal pathogens, Dm. The following applies: Stenocarpella maydis, 48 h, growth inhibition at 48 hours vs 2% DMSO control. Format: cell-based. An outline of the steps: as §2
In assay [2] the test system is Fusarium moniliforme (Fm). Put plainly: Growth inhibition assay of fungal pathogens, Fm. The settings on record: Fusarium verticillioides, 48 h, read-out: Concentration at 90% Inhibition Fm. Format: cell-based. Put shortly:
as §2

Assay [3] concerns Fusarium virguliforme (Fv). Put plainly: Growth inhibition assay of fungal pathogens, Fv. It counts as cell-based. The following applies: 48 h. Put shortly: as §2
In assay [4] the test system is Phytophthora capsici (Pc). Nature of the assay: Growth inhibition assay of fungal pathogens, Pc. It counts as cell-based. The settings on record: 48 h. An outline of the steps:
as §2

For the next assay, the system named is Rhizoctonia solani (Rs). Put plainly: Growth inhibition assay of fungal pathogens, Rs. It counts as cell-based. The following applies: 48 h.
In a further assay the test system is Septoria tritici (St). Put plainly: Growth inhibition assay of fungal pathogens, St. It counts as cell-based. The following applies: Zymoseptoria tritici, 48 h, growth inhibition at 48 hours vs 2% DMSO control. An outline of the steps: as §2
The next assay deals with fungal (fACC2) (UniProt Q00955). The following applies: read-out: fACC2 (in vitro ACC2 Inhibition Assay, IC50), ADP-Glo, 5 nM ACC2, 20 μM ATP, 20 μM acetyl-CoA.
Where [5] appears, read: Table 3a, ATCC 90028, 3 replicates, MIC recorded at 48 h, read-out: MIC, C. albicans ATCC 90028.
Where [6] appears, read: Table 3b (additional results), ATCC 90028, 3 replicates, MIC recorded at 48 h, read-out: MIC, C. albicans ATCC 90028.
Where [7] appears, read: Table 3a, ATCC 6258, 3 replicates, MIC recorded at 48 h, read-out: MIC, C. krusei ATCC 6258.
[8] abbreviates: Table 3b (additional results), ATCC 6258, 3 replicates, MIC recorded at 48 h, read-out: MIC, C. krusei ATCC 6258.
The mark [9] stands for this setting: Table 3a, ATCC 22019, 3 replicates, MIC recorded at 48 h, read-out: MIC, C. parapsilosis ATCC 22019.
Setting [10] is: Table 3b (additional results), ATCC 22019, 3 replicates, MIC recorded at 48 h, read-out: MIC, C. parapsilosis ATCC 22019.
[11] abbreviates: Botrtyis cinerea, read-out: Concentration at 90% Inhibition Bc.
Setting [12] is: Collectotrichum graminicola, read-out: Concentration at 90% Inhibition Cg.
Where [13] appears, read: Diplodia maydis, read-out: Concentration at 90% Inhibition Dm.
Setting [14] is: Fusarium moniliforme, growth inhibition at 48 hours vs 2% DMSO control.
Where [15] appears, read: growth inhibition at 48 hours vs 2% DMSO control, read-out: Concentration at 90% Inhibition Fv.
[16] abbreviates: growth inhibition at 48 hours vs 2% DMSO control, read-out: Concentration at 90% Inhibition Pc.
[17] abbreviates: mycelial plugs, growth inhibition at 48 hours vs 2% DMSO control, read-out: Concentration at 90% Inhibition Rs.
[18] abbreviates: Septoria tritici, read-out: Concentration at 90% Inhibition St.

Chain of human (hACC2) (O00763 whole entry): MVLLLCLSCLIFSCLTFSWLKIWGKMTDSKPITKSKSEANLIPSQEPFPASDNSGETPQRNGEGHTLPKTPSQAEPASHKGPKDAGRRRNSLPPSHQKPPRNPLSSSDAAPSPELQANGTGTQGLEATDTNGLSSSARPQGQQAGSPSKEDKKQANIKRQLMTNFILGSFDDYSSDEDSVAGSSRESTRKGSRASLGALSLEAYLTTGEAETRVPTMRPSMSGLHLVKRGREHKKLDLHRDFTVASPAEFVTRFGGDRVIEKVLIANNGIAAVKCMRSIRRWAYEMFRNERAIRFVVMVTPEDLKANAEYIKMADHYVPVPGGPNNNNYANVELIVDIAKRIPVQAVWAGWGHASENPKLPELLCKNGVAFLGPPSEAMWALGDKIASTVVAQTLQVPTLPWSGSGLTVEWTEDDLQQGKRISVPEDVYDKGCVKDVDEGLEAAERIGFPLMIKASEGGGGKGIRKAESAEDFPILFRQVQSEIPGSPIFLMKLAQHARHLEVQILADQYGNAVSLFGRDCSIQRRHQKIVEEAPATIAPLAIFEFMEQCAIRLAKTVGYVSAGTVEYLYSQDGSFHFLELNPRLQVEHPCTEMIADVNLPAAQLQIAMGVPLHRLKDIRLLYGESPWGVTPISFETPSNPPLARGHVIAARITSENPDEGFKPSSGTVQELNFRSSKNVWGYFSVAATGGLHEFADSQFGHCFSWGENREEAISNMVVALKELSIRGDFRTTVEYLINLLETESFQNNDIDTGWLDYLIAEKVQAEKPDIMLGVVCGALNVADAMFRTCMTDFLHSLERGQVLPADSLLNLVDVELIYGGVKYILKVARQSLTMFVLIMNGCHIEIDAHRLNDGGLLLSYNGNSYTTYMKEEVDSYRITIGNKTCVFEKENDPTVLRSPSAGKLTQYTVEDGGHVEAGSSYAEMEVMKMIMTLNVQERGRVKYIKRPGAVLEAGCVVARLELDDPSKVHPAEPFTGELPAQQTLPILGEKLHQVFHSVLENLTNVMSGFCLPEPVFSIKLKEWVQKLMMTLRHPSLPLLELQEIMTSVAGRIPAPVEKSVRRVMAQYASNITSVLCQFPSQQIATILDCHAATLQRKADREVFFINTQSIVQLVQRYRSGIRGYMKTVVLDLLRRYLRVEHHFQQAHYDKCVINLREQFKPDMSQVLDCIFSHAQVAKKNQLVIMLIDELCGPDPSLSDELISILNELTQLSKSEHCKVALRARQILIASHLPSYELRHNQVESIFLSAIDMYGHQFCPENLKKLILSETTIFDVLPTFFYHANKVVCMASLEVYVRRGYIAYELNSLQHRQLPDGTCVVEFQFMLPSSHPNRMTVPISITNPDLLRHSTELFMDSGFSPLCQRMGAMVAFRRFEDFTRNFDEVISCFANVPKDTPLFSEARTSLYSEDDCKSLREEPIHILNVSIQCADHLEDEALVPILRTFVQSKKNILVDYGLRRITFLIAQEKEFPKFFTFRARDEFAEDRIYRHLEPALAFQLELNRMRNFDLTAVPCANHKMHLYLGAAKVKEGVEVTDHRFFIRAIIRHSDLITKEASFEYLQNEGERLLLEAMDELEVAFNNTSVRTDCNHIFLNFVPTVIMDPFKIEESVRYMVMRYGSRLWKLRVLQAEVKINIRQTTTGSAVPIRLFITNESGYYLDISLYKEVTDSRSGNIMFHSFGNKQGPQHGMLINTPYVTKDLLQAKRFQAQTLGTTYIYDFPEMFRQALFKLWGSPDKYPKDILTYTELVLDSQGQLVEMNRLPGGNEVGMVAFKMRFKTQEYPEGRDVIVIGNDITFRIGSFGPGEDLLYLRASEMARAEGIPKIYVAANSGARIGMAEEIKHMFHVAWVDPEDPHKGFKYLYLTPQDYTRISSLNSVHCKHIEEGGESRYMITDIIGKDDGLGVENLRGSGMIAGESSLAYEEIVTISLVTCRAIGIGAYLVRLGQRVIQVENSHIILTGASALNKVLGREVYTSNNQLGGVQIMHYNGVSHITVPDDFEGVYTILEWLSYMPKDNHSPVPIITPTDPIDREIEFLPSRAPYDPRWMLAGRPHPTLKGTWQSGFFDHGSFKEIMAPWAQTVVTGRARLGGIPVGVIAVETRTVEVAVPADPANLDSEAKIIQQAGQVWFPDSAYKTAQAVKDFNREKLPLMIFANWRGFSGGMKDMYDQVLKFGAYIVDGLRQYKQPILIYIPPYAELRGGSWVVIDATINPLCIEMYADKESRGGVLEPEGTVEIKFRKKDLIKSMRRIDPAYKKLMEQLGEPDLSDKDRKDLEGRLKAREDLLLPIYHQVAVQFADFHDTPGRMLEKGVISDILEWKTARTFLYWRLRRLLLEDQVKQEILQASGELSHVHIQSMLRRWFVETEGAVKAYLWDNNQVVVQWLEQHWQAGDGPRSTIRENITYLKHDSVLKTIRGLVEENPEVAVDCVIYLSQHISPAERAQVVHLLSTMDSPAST
Chain of fungal (fACC2) (Q00955 whole entry): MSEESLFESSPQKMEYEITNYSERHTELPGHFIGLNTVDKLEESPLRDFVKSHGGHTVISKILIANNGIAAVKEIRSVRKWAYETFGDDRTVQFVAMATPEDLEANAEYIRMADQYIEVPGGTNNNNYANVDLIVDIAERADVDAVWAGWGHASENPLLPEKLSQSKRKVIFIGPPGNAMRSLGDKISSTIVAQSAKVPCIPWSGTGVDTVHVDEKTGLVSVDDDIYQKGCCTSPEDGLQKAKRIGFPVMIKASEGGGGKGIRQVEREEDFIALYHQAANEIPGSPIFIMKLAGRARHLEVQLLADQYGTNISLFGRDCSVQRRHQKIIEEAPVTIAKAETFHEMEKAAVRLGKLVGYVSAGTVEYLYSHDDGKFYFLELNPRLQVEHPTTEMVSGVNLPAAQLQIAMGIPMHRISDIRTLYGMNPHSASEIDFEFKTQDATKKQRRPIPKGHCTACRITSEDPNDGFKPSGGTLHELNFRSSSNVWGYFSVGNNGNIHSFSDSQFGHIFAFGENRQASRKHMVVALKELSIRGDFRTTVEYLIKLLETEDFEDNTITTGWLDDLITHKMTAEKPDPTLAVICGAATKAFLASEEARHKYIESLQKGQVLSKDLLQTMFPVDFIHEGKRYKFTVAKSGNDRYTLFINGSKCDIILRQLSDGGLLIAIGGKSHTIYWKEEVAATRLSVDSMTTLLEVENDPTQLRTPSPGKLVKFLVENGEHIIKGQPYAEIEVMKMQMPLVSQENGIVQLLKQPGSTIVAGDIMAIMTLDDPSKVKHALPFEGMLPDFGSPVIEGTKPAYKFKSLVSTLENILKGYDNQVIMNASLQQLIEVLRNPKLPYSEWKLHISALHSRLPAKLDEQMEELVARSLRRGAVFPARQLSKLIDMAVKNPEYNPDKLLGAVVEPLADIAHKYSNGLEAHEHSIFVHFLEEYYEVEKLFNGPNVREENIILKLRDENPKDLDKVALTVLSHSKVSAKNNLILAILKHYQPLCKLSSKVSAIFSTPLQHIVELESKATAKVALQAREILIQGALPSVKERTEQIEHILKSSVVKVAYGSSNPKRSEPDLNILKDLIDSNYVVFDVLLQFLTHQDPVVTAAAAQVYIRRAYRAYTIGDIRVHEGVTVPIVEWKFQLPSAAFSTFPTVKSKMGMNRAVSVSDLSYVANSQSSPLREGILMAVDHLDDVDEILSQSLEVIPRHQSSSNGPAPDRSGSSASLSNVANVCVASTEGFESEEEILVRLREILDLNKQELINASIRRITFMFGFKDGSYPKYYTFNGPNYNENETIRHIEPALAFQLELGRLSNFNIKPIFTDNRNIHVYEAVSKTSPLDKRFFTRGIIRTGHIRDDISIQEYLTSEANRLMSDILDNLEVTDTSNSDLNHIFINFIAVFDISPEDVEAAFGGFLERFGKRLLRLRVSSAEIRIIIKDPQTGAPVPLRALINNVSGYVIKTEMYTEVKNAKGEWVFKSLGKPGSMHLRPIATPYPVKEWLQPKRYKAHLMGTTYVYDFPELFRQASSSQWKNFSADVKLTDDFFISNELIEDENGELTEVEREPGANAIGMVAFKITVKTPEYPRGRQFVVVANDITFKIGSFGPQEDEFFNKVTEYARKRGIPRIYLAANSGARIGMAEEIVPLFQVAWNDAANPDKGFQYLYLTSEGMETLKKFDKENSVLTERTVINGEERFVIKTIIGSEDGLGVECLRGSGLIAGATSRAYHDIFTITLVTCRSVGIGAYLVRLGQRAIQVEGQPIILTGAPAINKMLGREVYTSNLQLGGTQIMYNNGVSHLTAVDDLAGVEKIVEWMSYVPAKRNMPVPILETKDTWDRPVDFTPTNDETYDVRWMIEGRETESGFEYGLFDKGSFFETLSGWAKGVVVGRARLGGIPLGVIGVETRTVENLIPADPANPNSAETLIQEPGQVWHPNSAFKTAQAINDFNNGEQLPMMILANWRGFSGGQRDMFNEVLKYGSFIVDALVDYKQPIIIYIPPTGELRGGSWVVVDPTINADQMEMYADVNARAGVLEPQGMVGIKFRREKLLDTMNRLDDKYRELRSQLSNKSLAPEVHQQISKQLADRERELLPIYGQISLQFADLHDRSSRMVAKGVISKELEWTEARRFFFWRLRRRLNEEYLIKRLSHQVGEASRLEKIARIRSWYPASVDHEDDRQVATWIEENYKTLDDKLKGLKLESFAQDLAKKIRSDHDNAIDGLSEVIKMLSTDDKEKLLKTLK

What is called IC50 is the midpoint of a concentration-inhibition curve. The MIC is the smallest concentration in the dilution series that meets the test's criterion for growth inhibition. In the case of `COc1ccc(F)cc1[C@H](Cn1c(=O)n(C(C)(C)C(=O)NC(C)C)c(=O)c2c(C)c(-n3nccn3)sc21)OCC#N` [Compound I-144], the half-maximal inhibitory concentration (IC50) on human (hACC2) (Table 2b, additional results) fell in the range of 5 to 10 nM; on fungal (fACC2) (Table 2a), 1 to 5 nM; on fungal (fACC2) (Table 2b, additional results), 1 to 5 nM. In addition, the MIC in the assay with C. albicans (read-out: MIC, C. albicans ATCC 90028, Table 3a, 3 replicates, MIC recorded at 48 h) is 0.25 to 1 µg/mL (≈ 0.428 to 1.71 µM); in the assay with C. albicans (read-out: MIC, C. albicans ATCC 90028, Table 3b (additional results), 3 replicates, MIC recorded at 48 h) it was 1.01 to 2 µg/mL (≈ 1.73 to 3.43 µM); in the assay on C. krusei (read-out: MIC, C. krusei ATCC 6258, Table 3a, 3 replicates, MIC recorded at 48 h), 0.25 to 1 µg/mL (≈ 0.428 to 1.71 µM); in the assay with C. krusei (read-out: MIC, C. krusei ATCC 6258, Table 3b (additional results), 3 replicates, MIC recorded at 48 h), 0.25 to 1 µg/mL (≈ 0.428 to 1.71 µM); with C. parapsilosis (read-out: MIC, C. parapsilosis ATCC 22019, Table 3a, 3 replicates, MIC recorded at 48 h) it was 0.25 to 1 µg/mL (≈ 0.428 to 1.71 µM); with C. parapsilosis (read-out: MIC, C. parapsilosis ATCC 22019, Table 3b (additional results), 3 replicates, MIC recorded at 48 h), 1.01 to 2 µg/mL (≈ 1.73 to 3.43 µM). Moreover, the IC90 in the assay with Botrtyis cinerea (Bc) (read-out: Concentration at 90% Inhibition Bc, Botrtyis cinerea) was 0.4 µg/mL (≈ 0.685 µM); in assay [1] (read-out: Concentration at 90% Inhibition Cg, Collectotrichum graminicola) it was 0.4 µg/mL (≈ 0.685 µM); in the assay on Diplodia maydis (Dm) (read-out: Concentration at 90% Inhibition Dm, Diplodia maydis), 0.4 µg/mL (≈ 0.685 µM); in assay [2] it was 2 µg/mL (≈ 3.43 µM); in [3] (read-out: Concentration at 90% Inhibition Fv, Fusarium virguliforme, growth inhibition at 48 hours vs 2% DMSO control) it was 0.4 µg/mL (≈ 0.685 µM); in assay [4] (read-out: Concentration at 90% Inhibition Pc, Phytophthora capsici, growth inhibition at 48 hours vs 2% DMSO control) it was above 50 µg/mL. For the same compound, the IC90 is 0.08 µg/mL (≈ 0.137 µM) in the assay with Rhizoctonia solani (Rs) (read-out: Concentration at 90% Inhibition Rs, Rhizoctonia solani, mycelial plugs, growth inhibition at 48 hours vs 2% DMSO control) and above 50 µg/mL in the assay with Septoria tritici (St) (read-out: Concentration at 90% Inhibition St, Septoria tritici).
For the compound `COc1ccc(F)cc1[C@H](Cn1c(=O)n(C(C)(C)C(=O)NC(C)C)c(=O)c2c(C)c(-n3nccn3)sc21)OC[C@@H](C)C#N` [Compound I-150], the IC50 against human (hACC2) (Table 2a) lay in the range of 1 to 5 nM; at human (hACC2) (Table 2b, additional results), 1 to 5 nM; at fungal (fACC2) (Table 2a), 0.4 to 1 nM; at fungal (fACC2) (Table 2b, additional results) it was 0.3 to 1 nM. Further, the minimum inhibitory concentration (MIC) in the assay on C. albicans (setting [5]), in the assay with C. albicans (setting [6]), in the assay on C. krusei (setting [7]), in the assay with C. krusei (setting [8]), with C. parapsilosis (setting [9]) and with C. parapsilosis (setting [10]) was 0.25 to 1 µg/mL (≈ 0.409 to 1.63 µM) each time. The IC90 with Botrtyis cinerea (Bc) (setting [11]) is 0.4 µg/mL (≈ 0.654 µM); in [1] (setting [12]), 0.08 µg/mL (≈ 0.131 µM); in the assay with Diplodia maydis (Dm) (setting [13]), 0.08 µg/mL (≈ 0.131 µM); in [2] (setting [14]), 0.08 µg/mL (≈ 0.131 µM); in [3] (setting [15]) it was 0.4 µg/mL (≈ 0.654 µM); in assay [4] (setting [16]) it was above 50 µg/mL. Also, the IC90 is 0.08 µg/mL (≈ 0.131 µM) in the assay with Rhizoctonia solani (Rs) (setting [17]) and above 50 µg/mL with Septoria tritici (St) (setting [18]).
Regarding `COc1ccc(F)cc1[C@H](Cn1c(=O)n(C(C)(C)C(=O)NC(C)C)c(=O)c2c(C)c(-n3nccn3)sc21)OC[C@H](C)C#N` [Compound I-151], the half-maximal inhibitory concentration (IC50) is 5 to 10 nM against human (hACC2) (Table 2a); 1 to 5 nM at human (hACC2) (Table 2b, additional results); 0.4 to 1 nM on fungal (fACC2) (Table 2a); 0.3 to 1 nM at fungal (fACC2) (Table 2b, additional results). Besides, the MIC in the assay with C. albicans (setting [5]), with C. albicans (setting [6]), in the assay on C. krusei (setting [7]), with C. krusei (setting [8]), in the assay with C. parapsilosis (setting [9]) and in the assay on C. parapsilosis (setting [10]) was 0.25 to 1 µg/mL (≈ 0.409 to 1.63 µM) throughout. For the same compound, the IC90 with Botrtyis cinerea (Bc) (setting [11]) is 0.4 µg/mL (≈ 0.654 µM); in assay [1] (setting [12]) it was 0.08 µg/mL (≈ 0.131 µM); in the assay on Diplodia maydis (Dm) (setting [13]), 0.08 µg/mL (≈ 0.131 µM); in assay [2] (setting [14]), 0.08 µg/mL (≈ 0.131 µM); in assay [3] (setting [15]), 0.4 µg/mL (≈ 0.654 µM); in [4] (setting [16]), above 50 µg/mL. Also, the IC90 in the assay with Rhizoctonia solani (Rs) (setting [17]) was 0.08 µg/mL (≈ 0.131 µM); with Septoria tritici (St) (setting [18]) it was above 50 µg/mL.
